Data published in PMC10518257 (Nature Cancer, 2023).
Several values for one entry are separate records, joined by “and”; a condition that tells them apart may be missing. Identical values can stand only once. Like-named read-outs stand apart in the source and are kept apart here.

Assays:
Ba/F3-RET^M918T = assay: Growth inhibition assay in Ba/F3 cells (CellTiter-Glo, 72 h); format: cell-based; settings: Mus musculus, BaF3, 72 h, read-out: GI50 value (Mean ± SD), Ba/F3-RET^M918T, CellTiter-Glo, 72 h
ECLC5B cells = assay: Growth inhibition (alamarBlue, 96 h); format: cell-based, human; settings: for raw viability signal (Source Data Fig. 3b-c): ECLC5B, replicates
LUAD-0087AS2 cells = assay: Growth inhibition (alamarBlue, 96 h); format: cell-based, human; settings: for raw viability signal (Source Data Fig. 3b-c): LUAD-0087AS2, replicate sets
[1] = system: Ba/F3 cells expressing KIF5B–RET^V804M; assay: Growth inhibition assay in Ba/F3 cells (CellTiter-Glo, 72 h); format: cell-based; settings: replicate sets
LUAD-0077AS1 PDX = assay: PDX efficacy study; format: in vivo, NSG mice; parameters: Tumor volume: unit not given here; settings: 10 mg/kg BID
[2] = system: Ba/F3 cells expressing KIF5B–RET^WT; assay: Growth inhibition assay in Ba/F3 cells (CellTiter-Glo, 72 h); format: cell-based
[3] = system: Ba/F3 KIF5B–RET^G810R allograft tumors; assay: Subcutaneous allograft efficacy study; format: in vivo, BALB/c nude mice; settings: in mm³ (unit assumed);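 note: mean tumor volume per dosing group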
TT cells = assay: Growth inhibition (alamarBlue, 96 h); format: cell-based, human; settings: replicate sets
[4] = Homo sapiens, 96 h, read-out: IC50 for Inhibition of Growth (95% CI)

## COc1ccc(CN2C3CC2CN(c2ccc(-c4cc(OCC(C)(C)O)cn5ncc(C#N)c45)cn2)C3)cn1 [Selpercatinib]
Ba/F3-RET^M918T
  GI50: 1.24 ± 0.78 nM
ECLC5B cells; 0.01 nM
  raw viability signal (Source Data Fig. 3b-c): 10363.9 and 7402.21 and 18274
ECLC5B cells; 0.1 nM
  raw viability signal (Source Data Fig. 3b-c): 11026.5 and 8834.98 and 20243.9
ECLC5B cells; 1 nM
  raw viability signal (Source Data Fig. 3b-c): 10668.5 and 7252.95 and 17721.9
ECLC5B cells; 10 nM
  raw viability signal (Source Data Fig. 3b-c): 3598.88 and 1351.95 and 6402.34
ECLC5B cells; 100 nM
  raw viability signal (Source Data Fig. 3b-c): 3342.11 and 1356.99 and 4729.16
ECLC5B cells; 1000 nM
  raw viability signal (Source Data Fig. 3b-c): 2886.96 and 1354.63 and 4277.75
ECLC5B cells; 10000 nM
  raw viability signal (Source Data Fig. 3b-c): 1612.7 and 1276.67 and 2944.43
ECLC5B cells; [4]
  IC50: 5 nM
LUAD-0087AS2 cells; [4]
  IC50: 11 nM
LUAD-0087AS2 cells; 0.01 nM
  raw viability signal (Source Data Fig. 3b-c): 15388.6 and 12720.2
LUAD-0087AS2 cells; 0.1 nM
  raw viability signal (Source Data Fig. 3b-c): 16047 and 13628.3
LUAD-0087AS2 cells; 1 nM
  raw viability signal (Source Data Fig. 3b-c): 15441.4 and 12355.8
LUAD-0087AS2 cells; 10 nM
  raw viability signal (Source Data Fig. 3b-c): 6632.52 and 4277.26
LUAD-0087AS2 cells; 100 nM
  raw viability signal (Source Data Fig. 3b-c): 5690.09 and 3170.8
LUAD-0087AS2 cells; 1000 nM
  raw viability signal (Source Data Fig. 3b-c): 5599.27 and 2744.81
LUAD-0087AS2 cells; 10000 nM
  raw viability signal (Source Data Fig. 3b-c): 3412.76 and 2132.34
[1]; Ba/3-KIF5B-RET-V804M
  GI50: 36.4 nM and 32.9 nM
[1]; Mus musculus, BaF3, Ba/3-KIF5B-RET-V804M
  GI50: 30.6 nM
LUAD-0077AS1 PDX; Fig. 6b LUAD-0077AS1 tumor growth
  Area Under Curve Mean: -23
LUAD-0077AS1 PDX; LUAD-0077AS1, individual animals
  Change in tumor volume (block without heading, Fig. 6b): 38.5614 and 19.1252 and 18.7579 and 13.1905 and -24.8651
LUAD-0077AS1 PDX; LUAD-0077AS1, treatment day 0, individual animals
  Tumor volume: 87.11 (3×) and 85.5 and 88.7
LUAD-0077AS1 PDX; LUAD-0077AS1, treatment day 4, individual animals
  Tumor volume: 68.07 (2×) and 74.9 and 73.54 and 70.82
LUAD-0077AS1 PDX; LUAD-0077AS1, treatment day 7, individual animals
  Tumor volume: 60.32 and 69.38 and 66.76 and 62.86
LUAD-0077AS1 PDX; LUAD-0077AS1, treatment day 11, individual animals
  Tumor volume: 55.4 and 58.99 and 56.5 and 54.36 and 55.52
LUAD-0077AS1 PDX; LUAD-0077AS1, treatment day 14, individual animals
  Tumor volume: 43.41 and 58.99 (2×) and 54.36 and 55.52
LUAD-0077AS1 PDX; LUAD-0077AS1, treatment day 19, individual animals
  Tumor volume: 65.45 and 118.47 and 103.45 and 103.77 and 100.4
LUAD-0077AS1 PDX; LUAD-0077AS1, treatment day 22, individual animals
  Tumor volume: 73.3 and 171.06 and 147.55 and 142.9 and 164.22
LUAD-0077AS1 PDX; LUAD-0077AS1, treatment day 25, individual animals
  Tumor volume: 73.3 and 231.59 and 205.8 and 209.11 and 214.85
[2]; Ba/3-KIF5B-RET, replicate sets
  GI50: 6.35 nM and 7.55 nM
[2]; Mus musculus, BaF3, 72 h, read-out: GI50 value (Mean ± SD), Ba/F3-KIF5B::RET, CellTiter-Glo, 72 h
  GI50: 6.68 ± 0.76 nM
[2]; Mus musculus, BaF3, Ba/3-KIF5B-RET, replicate sets
  GI50: 6.13 nM
[3]; Fig. 7c Ba/F3-KIF5B::RET G810R, selpercatinib 10 mg/kg BID, day 1
  Tumor Volume Mean: 153.47
[3]; Fig. 7c Ba/F3-KIF5B::RET G810R, selpercatinib 10 mg/kg BID, day 4
  Tumor Volume Mean: 195.84
[3]; Fig. 7c Ba/F3-KIF5B::RET G810R, selpercatinib 10 mg/kg BID, day 8
  Tumor Volume Mean: 432.66
[3]; Fig. 7c Ba/F3-KIF5B::RET G810R, selpercatinib 10 mg/kg BID, day 11
  Tumor Volume Mean: 585.46
[3]; Fig. 7c Ba/F3-KIF5B::RET G810R, selpercatinib 10 mg/kg BID, day 15
  Tumor Volume Mean: 999.76
[3]; Fig. 7d Ba/F3-KIF5B::RET G810R, selpercatinib 30 mg/kg BID, day 1
  Tumor Volume Mean: 157.6
[3]; Fig. 7d Ba/F3-KIF5B::RET G810R, selpercatinib 30 mg/kg BID, day 4
  Tumor Volume Mean: 307.7
[3]; Fig. 7d Ba/F3-KIF5B::RET G810R, selpercatinib 30 mg/kg BID, day 8
  Tumor Volume Mean: 440.3
[3]; Fig. 7d Ba/F3-KIF5B::RET G810R, selpercatinib 30 mg/kg BID, day 11
  Tumor Volume Mean: 551.9
[3]; Fig. 7d Ba/F3-KIF5B::RET G810R, selpercatinib 30 mg/kg BID, day 15
  Tumor Volume Mean: 795.7
TT cells; 0.01 nM
  raw viability signal (Source Data Fig. 3b-c): 21887.2 and 26414 and 26210.1 and 12272.3 and 26926.8
TT cells; 0.1 nM
  raw viability signal (Source Data Fig. 3b-c): 22325.8 and 26539.8 and 30465.8 and 11158.3 and 24677.4
TT cells; 1 nM
  raw viability signal (Source Data Fig. 3b-c): 20930 and 26176.3 and 29470 and 9614.13 and 22745.1
TT cells; 10 nM
  raw viability signal (Source Data Fig. 3b-c): 15380.3 and 24600.1 and 21198.9 and 8183.69 and 18775.6
TT cells; 100 nM
  raw viability signal (Source Data Fig. 3b-c): 9716.19 and 12690.1 and 13114.5 and 5163.1 and 15418.2
TT cells; 1000 nM
  raw viability signal (Source Data Fig. 3b-c): 9549.4 and 11696.3 and 12426 and 4648.23 and 14095
